# Experimental data as given in patent publication US7700617B2, “Salt of naphthyridine carboxylic acid derivative” (LG Life Sciences, Ltd., priority 1997, dated 2010).
# Legend:
# [1] = Moisture sorption of the anhydrate, automatic moisture sorption analyzer; assay type: physicochemical; details: 25° C., each relative humidity 0 to 95%, in most cases
# Description: The moisture sorption velocity and the equilibrium moisture content of the anhydrate of Example 1 was determined by means of an automatic moisture sorption analyzer (MB 300G Gravimetric Sorption Analyzer). This instrument produces a specific relative humidity at a specific temperature and continuously records the weight change of a sample due to adsorption or desorption of moisture as measured by a micro balance inside the instrument. The anhydrate of Example 1 (16 mg) was loaded onto the micro balance and the moisture contained in the sample removed under a stream of dried nitrogen at 50° C. A weight change of less than 5 μg per 5 minutes was the criterion for complete dryness. Thereafter, the inner temperature was adjusted to 25° C. and the sample tested at 5% intervals whilst varying the humidity from 0 to 95%. The sample was considered to have reached equilibrium when the weight change was less than 5 μg per 5 minutes. […] It is clear from FIG. 2 that the equilibrium moisture content of the anhydrate is dependent on the relative humidity.
# [2] = Chemical stability at elevated temperature, decomposition by liquid chromatography; assay type: physicochemical; details: at 70° C.
# Description: The present inventors also compared the chemical stability under heating of the hydrates with that of the anhydrate in order to identify the influence of hydration on the chemical stability. In this test, the anhydrate and hydrate were each kept at 70° C. for 4 weeks, and the extent of decomposition is analyzed by liquid chromatography. No difference in the extent of decomposition was noticed between the hydrates and the anhydrate, and thus confirming that the hydrate has the same chemical stability as the anhydrate.
# The chemical stability of the n=3 hydrate of Example 2 and the n=1.5 hydrate of Example 3 and the anhydrate of Example 1 were compared at elevated temperature in order to determine the effect on chemical stability of the extent of hydration.
# The anhydrate and each of the hydrates were introduced into a glass vial and maintained at 70° C. The extent of decomposition with elapsed time was analyzed by liquid chromatography.
# Bacillus subtilis 6633 = experiment: In vitro antibacterial activity, agar medium dilution method; assay type: cell-based; details: read-out: Minimum Inhibitory Concentration: MIC
# Description: (§1) In order to determine whether 7-(3-aminomethyl-4-methyloxyimino-pyrrolidin-1-yl)-1-cyclopropyl-6-fluoro-4-oxo-1,4-dihydro-1,8-naphthyridine-3-carboxylic acid methanesulfonate has the same antibacterial activity as the free base, in vitro antibacterial activity of the methanesulfonate was measured using agar medium dilution method.
# Proteus vulgaris 6059 = experiment: as above; assay type: cell-based; details: read-out: Minimum Inhibitory Concentration: MIC
# Description: as §1
# [3] = system: Staphylococcus aureus 6538p; experiment: as above; assay type: cell-based; details: weight ratio, molecular weight not considered, read-out: Minimum Inhibitory Concentration: MIC
# Description: as §1
# Escherichia coli 851E = experiment: as above; assay type: cell-based; details: read-out: Minimum Inhibitory Concentration: MIC
# Description: as §1
# [4] = system: Staphylococcus aureus 241; experiment: as above; assay type: cell-based; details: read-out: Minimum Inhibitory Concentration: MIC
# Description: as §1
# Micrococcus luteus 9431 = experiment: as above; assay type: cell-based; details: read-out: Minimum Inhibitory Concentration: MIC
# Description: as §1
# [5] = system: Escherichia coli TEM5 3739E; experiment: as above; assay type: cell-based; details: TEM53739E, read-out: Minimum Inhibitory Concentration: MIC
# Description: as §1
# [6] = system: Salmonella thypimurium 14028; experiment: as above; assay type: cell-based; details: read-out: Minimum Inhibitory Concentration: MIC
# Description: as §1
# Escherichia coli 3190Y = experiment: as above; assay type: cell-based; details: read-out: Minimum Inhibitory Concentration: MIC
# Description: as §1
# [7] = system: Pseudomonas aeruginosa 10145; experiment: as above; assay type: cell-based; details: read-out: Minimum Inhibitory Concentration: MIC
# Description: as §1
# [8] = system: Klebsiella aerogenes 1976E; experiment: as above; assay type: cell-based; details: read-out: Minimum Inhibitory Concentration: MIC
# Description: as §1
# [9] = system: Staphylococcus aureus epidermidis 178; experiment: as above; assay type: cell-based; details: read-out: Minimum Inhibitory Concentration: MIC
# Description: as §1
# [10] = system: Staphylococcus aureus giorgio; experiment: as above; assay type: cell-based; details: read-out: Minimum Inhibitory Concentration: MIC
# Description: as §1
# [11] = system: Staphylococcus aureus faecalis 29212; experiment: as above; assay type: cell-based; details: read-out: Minimum Inhibitory Concentration: MIC
# Description: as §1
# [12] = system: Escherichia coli TEM3 3455E; experiment: as above; assay type: cell-based; details: TEM33455E, read-out: Minimum Inhibitory Concentration: MIC
# Description: as §1
# [13] = system: Pseudomonas aeruginosa 1912E; experiment: as above; assay type: cell-based; details: read-out: Minimum Inhibitory Concentration: MIC
# Description: as §1
# Escherichia coli 10536 = experiment: as above; assay type: cell-based; details: read-out: Minimum Inhibitory Concentration: MIC
# Description: as §1
# [14] = system: Staphylococcus aureus epidermidis 887E; experiment: as above; assay type: cell-based; details: read-out: Minimum Inhibitory Concentration: MIC
# Description: as §1
# [15] = system: Acinetobacter calcoaceticus 15473; experiment: as above; assay type: cell-based; details: read-out: Minimum Inhibitory Concentration: MIC
# Description: as §1
# Staphylococcus aureus 77 = experiment: as above; assay type: cell-based; details: read-out: Minimum Inhibitory Concentration: MIC
# Description: as §1
# Seratia marsecence 1826E = experiment: as above; assay type: cell-based; details: read-out: Minimum Inhibitory Concentration: MIC
# Description: as §1
# Water solubility = details: 25 °C
# Enterobacter cloacae P99 = experiment: In vitro antibacterial activity, agar medium dilution method; assay type: cell-based; details: read-out: Minimum Inhibitory Concentration: MIC
# Description: as §1
# [16] = system: Escherichia coli TEM9 2639E; experiment: as above; assay type: cell-based; details: TEM92639E, read-out: Minimum Inhibitory Concentration: MIC
# Description: as §1
# [17] = system: Citrobacter diversus 2046E; experiment: as above; assay type: cell-based; details: Citrobacter koseri, read-out: Minimum Inhibitory Concentration: MIC
# Description: as §1
# [18] = system: Enterobacter cloacae 1194E; experiment: as above; assay type: cell-based; details: read-out: Minimum Inhibitory Concentration: MIC
# Description: as §1
# [19] = system: Klebsiella aerogenes 1082E; experiment: as above; assay type: cell-based; details: read-out: Minimum Inhibitory Concentration: MIC
# Description: as §1
Compound,MIC (Bacillus subtilis 6633) [µg/mL],MIC (Proteus vulgaris 6059) [µg/mL],MIC [3] [µg/mL],MIC (Escherichia coli 851E) [µg/mL],MIC [4] [µg/mL],MIC (Micrococcus luteus 9431) [µg/mL],MIC [5] [µg/mL],MIC [6] [µg/mL],MIC (Escherichia coli 3190Y) [µg/mL],MIC [7] [µg/mL],MIC [8] [µg/mL],MIC [9] [µg/mL],MIC [10] [µg/mL],MIC [11] [µg/mL],MIC [12] [µg/mL],MIC [13] [µg/mL],MIC (Escherichia coli 10536) [µg/mL],MIC [14] [µg/mL],MIC [15] [µg/mL],MIC (Staphylococcus aureus 77) [µg/mL],further results
"CON=C1CN(c2nc3c(cc2F)c(=O)c(C(=O)O)cn3C2CC2)CC1CN.CS(=O)(=O)O (stereo not drawn) [Anhydrate, 7-(3-aminomethyl-4-methoxyiminopyrrolidin-1-yl)-1-cyclopropyl-6-fluoro-4-oxo-1,4-dihydro-1,8-naphthyridine-3-carboxylic acid methanesulfonate anhydrate]",,,,,,,,,,,,,,,,,,,,,Time to reach moisture sorption equilibrium [1]: ≤ 2 h; Thermal stability with elapsed time ([2]; 1 week): 99.8%; Thermal stability with elapsed time ([2]; 2 weeks): 98.6%; Thermal stability with elapsed time ([2]; 3 weeks): 97.7%; Thermal stability with elapsed time ([2]; 4 weeks): 96.7%; Thermal stability with elapsed time ([2]; Initial): 100%
"O=C(O)c1cn(C2CC2)c2cc(N3CCNCC3)c(F)cc2c1=O [Ciprofloxacin, ciprofloxacin, reference compound]",0.031,0.031,0.13,< 0.008,128,2,0.13,0.031,< 0.008,0.5,0.13,128,0.13,0.5,0.5,0.13,< 0.008,0.13,0.25,0.25,MIC (Seratia marsecence 1826E): 0.063 µg/mL
"CO/N=C1\CN(c2nc3c(cc2F)c(=O)c(C(=O)O)cn3C2CC2)CC1CN (stereo not drawn) [Free form, 7-(3-aminomethyl-4-methoxyiminopyrrolidin-1-yl)-1-cyclopropyl-6-fluoro-4-oxo-1,4-dihydro-1,8-naphthyridine-3-carboxylic acid]",,,,,,,,,,,,,,,,,,,,,solubility (Water solubility): 7 µg/mL
"CON=C1CN(c2nc3c(cc2F)c(=O)c(C(=O)O)cn3C2CC2)CC1CN.CS(=O)(=O)O (stereo not drawn) [Methanesulfonic acid salt, 7-(3-aminomethyl-4-methyloxyimino-pyrrolidin-1-yl)-1-cyclopropyl-6-fluoro-4-oxo-1,4-dihydro-1,8-naphthyridine-3-carboxylic acid methanesulfonate]",0.016,0.25,0.016,0.016,4,0.13,0.13,0.031,0.008,0.5,0.13,4,0.016,0.13,0.25,0.25,0.008,0.016,0.031,0.031,MIC (Enterobacter cloacae P99): 0.016 µg/mL; MIC [16]: 0.031 µg/mL; MIC [17]: 0.031 µg/mL; MIC [18]: 0.031 µg/mL; MIC [19]: 0.031 µg/mL; MIC (Seratia marsecence 1826E): 0.13 µg/mL
